Patent US20230159445A1, “STAT INHIBITORY COMPOUNDS AND COMPOSITIONS” (JANPIX LIMITED, priority 2020, published 2023)

These molecules were tested on MV4-11 cells (assay: MV4-11 Cell Cytotoxicity Assay (CellTiter-Blue, 72 h)). Conditions: Homo sapiens, MV4-11; MV-4-11 cells.
Assay type: cell-based, human
Procedure: In some embodiments, the potency of the STAT5 inhibitors are evaluated by an in vitro assay such as MV4-11 Cell Cytotoxicity Assay. […] 10,000 cells were plated per well in 96-well flat-bottom sterile culture plates with low-evaporation lids. After 24 h, inhibitors and a vehicle control (0.5% DMSO) were added and the cells were incubated for 72 h at 37° C. in 5% CO2. Inhibitors were examined in triplicate at a maximal concentration of 50 μM, followed by 1:2 dilutions in subsequent wells (25, 12.5, 6.25, 3.125, 1.5625, 0.78125, 0.390625, 0.195313 and 0.097656 μM). After 72 h, the wells were treated with CellTiter-Blue® (20 μL/well), and the plates were incubated using standard cell culture conditions for 1 hour. Fluorescence was measured at 560/590 nm.
CN(C)CCOc1cc(C(=O)O)ccc1N(Cc1cc(C2CC2)cc(C(C)(C)C)c1)C(=O)CN(Cc1ccccc1F)S(=O)(=O)c1c(F)c(F)c(F)c(F)c1F [Compound 1101, 4-(N-(3-(tert-butyl)-5-cyclopropylbenzyl)-2-(N-(2-fluorobenzyl)-(2,3,4,5,6-pentafluoro-phenyl)sulfonamido)taceamido)-3-(2-(dimethylamino)ethoxy) benzoic acid] showed an IC50 of 3160 to 100000 nM. For CN(C)c1cc(C(=O)O)ccc1N(Cc1cc(C2CC2)cc(C(C)(C)C)c1)C(=O)CN(Cc1c(F)c(F)c(F)c(F)c1F)S(=O)(=O)c1c(F)c(F)c(F)c(F)c1F [Compound 1106, 4-(N-(3-(tert-butyl)-5-cyclopropylbenzyl)-2-(N-((perfluorophenyl)methyl)-(2,3,4,5,6-pentafluorophenyl)sulfonamido)acetamido)-3-(dimethylamino)benzoic acid], the IC50 was 0.01 to 316 nM. CN(C)c1cc(C(=O)O)c(F)cc1N(Cc1cc(C2CC2)cc(C(C)(C)C)c1)C(=O)CN(Cc1c(F)c(F)c(F)c(F)c1F)S(=O)(=O)c1c(F)c(F)c(F)c(F)c1F [Compound 1107, 4-(N-(3-(tert-butyl)-5-cyclopropylbenzyl)-2-(N-((perfluorophenyl)methyl)-(2,3,4,5,6-pentafluoro-phenyl)sulfonamido)acetamido)-5-(dimethylamino)-2-fluorobenzoic acid] was tested, and the IC50 was 0.01 to 316 nM. In the case of CC(C)(C)c1cc(CN(C(=O)CN(Cc2ccccc2C(F)(F)F)S(=O)(=O)c2c(F)c(F)c(F)c(F)c2F)c2ccc(C(=O)O)cc2C2CC2)cc(C2CC2)c1 [Compound 1112, 4-(N-(3-(tert-butyl)-5-cyclopropylbenzyl)-2-(N-(2-(trifluoromethyl)benzyl)-(2,3,4,5,6-pentafluoro-phenyl)sulfonamido)acetamido)-3-cyclopropylbenzoic acid], the IC50 is reported as 0.01 to 316 nM. Work on CN(C)c1cc(C(=O)O)c(F)cc1N(Cc1cc(C2CC2)cc(C(C)(C)C)c1)C(=O)CN(Cc1ccccc1C(F)(F)F)S(=O)(=O)c1c(F)c(F)c(F)c(F)c1F [Compound 1113, 4-(N-(3-(tert-butyl)-5-cyclopropylbenzyl)-2-(N-(2-(trifluoromethyl)benzyl)-(2,3,4,5,6-pentafluoro-phenyl)sulfonamido)acetamido)-5-(dimethylamino)-2-fluorobenzoic acid] yielded an IC50 of 316 to 1000 nM. In the case of COc1cc(C(N)=O)ccc1N(Cc1cc(C2CC2)cc(C(C)(C)C)c1)C(=O)CN(Cc1ccccc1F)S(=O)(=O)c1c(F)c(F)c(F)c(F)c1F [Compound 1114, 4-(N-(3-(tert-butyl)-5-cyclopropylbenzyl)-2-(N-(2-fluorobenzyl)-(2,3,4,5,6-pentafluoro-phenyl)sulfonamido)acetamido)-3-methoxybenzamide], the IC50 is reported as 316 to 1000 nM. For CN(C)c1ccc(C(=O)O)cc1N(Cc1cc(C2CC2)cc(C(C)(C)C)c1)C(=O)CN(Cc1ccccc1F)S(=O)(=O)c1c(F)c(F)c(F)c(F)c1F [Compound 1120, 3-(N-(3-(tert-butyl)-5-cyclopropylbenzyl)-2-(N-(2-fluorobenzyl)-(2,3,4,5,6-pentafluoro-phenyl)sulfonamido)acetamido)-4-(dimethylamino) benzoic acid], the IC50 was 316 to 1000 nM. In the case of CN(C)c1cc(C(=O)O)ccc1N(Cc1cc(C2CC2)cc(C(C)(C)C)c1)C(=O)CN(Cc1c(F)cc(F)cc1F)S(=O)(=O)c1c(F)c(F)c(F)c(F)c1F [Compound 1125, 4-(N-(3-(tert-butyl)-5 - cyclopropylbenzyl)-2-(N-(2,4,6-trifluorobenzyl)-(2,3,4,5,6-pentafluoro-phenyl)sulfonamido)acetamido)-3-(dimethylamino) benzoic acid], the IC50 is reported as 316 to 1000 nM. Molecule O=C(O)c1ccc(N(Cc2ccccn2)C(=O)CN(Cc2ccccc2C(F)(F)F)S(=O)(=O)c2c(F)c(F)c(F)c(F)c2F)c(OC2CC2)c1 [Compound 1127, 3-cyclopropoxy-4-(2-(N-(2-(trifluoromethyl)benzyl)-(2,3,4,5,6-pentafluoro-phenyl)sulfonamido)-N-(pyridin-2-ylmethyl)acetamido) benzoic acid] has an IC50 of 1000 to 3160 nM. COc1cc(C(=O)O)ccc1N(Cc1cc(C2CC2)cc(C(C)(C)C)c1)C(=O)CN(Cc1cncc(C(F)(F)F)c1)S(=O)(=O)c1c(F)c(F)c(F)c(F)c1F [Compound 1131, 4-(N-(3-(tert-butyl)-5-cyclopropylbenzyl)-2-(N-((5-(trifluoromethyl)pyridin-3-yl)methyl)-(2,3,4,5,6-pentafluoro-phenyl)sulfonamido)acetamido)-3-methoxybenzoic acid] showed an IC50 of 316 to 1000 nM. CC(C)(C)c1cc(CN(C(=O)CN(Cc2cccc(C(F)(F)F)c2)S(=O)(=O)c2c(F)c(F)c(F)c(F)c2F)c2ccc(C(=O)O)cc2OC2CC2)cc(C2CC2)c1 [Compound 1135, 4-(N-(3-(tert-butyl)-5-cyclopropylbenzyl)-2-(N-(3-(trifluoromethyl)benzyl)-(2,3,4,5,6-pentafluoro-phenyl)sulfonamido)acetamido)-3-cyclopropoxybenzoic acid] gave an IC50 of 316 to 1000 nM. Molecule O=C(O)c1ccc(N(Cc2cccnn2)C(=O)CN(Cc2ccccc2C(F)(F)F)S(=O)(=O)c2c(F)c(F)c(F)c(F)c2F)c(OC2CC2)c1 [Compound 1138, 3-cyclopropoxy-4-(2-(N-(2-(trifluoromethyl)benzyl)-(2,3,4,5,6-pentafluoro-phenyl)sulfonamido)-N-(pyridazin-3-ylmethyl)acetamido) benzoic acid] has an IC50 of 3160 to 100000 nM. Molecule CC(C)(C)c1cc(CN(C(=O)CN(Cc2cccc(C#N)c2)S(=O)(=O)c2c(F)c(F)c(F)c(F)c2F)c2ccc(C(=O)O)cc2OC2CC2)cc(C2CC2)c1 [Compound 1139, 4-(N-(3-(tert-butyl)-5-cyclopropylbenzyl)-2-(N-(3-cyanobenzyl)-(2,3,4,5,6-pentafluorophenyl)sulfon-amido)acetamido)-3-cyclopropoxybenzoic acid] has an IC50 of 316 to 1000 nM. CC(C)(C)c1cc(CN(C(=O)CN(Cc2ccc(C#N)cc2)S(=O)(=O)c2c(F)c(F)c(F)c(F)c2F)c2ccc(C(=O)O)cc2OC2CC2)cc(C2CC2)c1 [Compound 1140, 4-(N-(3-(tert-butyl)-5-cyclopropylbenzyl)-2-(N-(4-cyanobenzyl)-(2,3,4,5,6-pentafluorophenyl)sulfon-amido)acetamido)-3-cyclopropoxybenzoic acid] gave an IC50 of 316 to 1000 nM. COc1cc(C(=O)O)ccc1N(Cc1cccc(C(C)(C)C)c1)C(=O)CN(C12CC(C1)C2)S(=O)(=O)c1c(F)c(F)c(F)c(F)c1F [Compound 1144, 4-(2-(N-(bicyclo[1.1.1]pentan-1-yl)-(2,3,4,5,6-pentafluorophenyl)sulfon-amido)-N-(3-(tert-butyl)benzyl)acetamido)-3-methoxybenzoic acid] showed an IC50 of 316 to 1000 nM. CC(C)(C)c1cc(CN(C(=O)CN(Cc2ccccc2F)S(=O)(=O)c2c(F)c(F)c(F)c(F)c2F)c2ccc(C#N)c(F)c2)cc(C2CC2)c1 [Compound 1151, N-(3-(tert-butyl)-5-cyclopropylbenzyl)-N-(4-cyano-3-fluorophenyl)-2-(N-(2-fluorobenzyl)-(2,3,4,5,6-pentafluoro-phenyl)sulfonamido) acetamide] gave an IC50 of 3160 to 100000 nM. Molecule COc1cc(C(=O)O)ccc1N(Cc1nc2ccccc2n1C)C(=O)CN(Cc1cnccc1C(F)(F)F)S(=O)(=O)c1c(F)c(F)c(F)c(F)c1F [Compound 1158, 3-methoxy-4-(N-((1-methyl-1H-benzo[d]imidazol-2-yl)methyl)-2-(N-((4-(trifluoromethyl)pyridin-3-yl)methyl)-(2,3,4,5,6-pentafluoro-phenyl)sulfonamido)acetamido)benzoic acid] has an IC50 of 3160 to 100000 nM. Work on COc1cc(C(=O)O)ccc1N(Cc1cc(C2CC2)cc(C(C)(C)C)c1)C(=O)CN(Cc1ccc(Cl)cc1F)S(=O)(=O)c1c(F)c(F)c(F)c(F)c1F [Compound 1175, 4-(N-(3-(tert-butyl)-5-cyclopropylbenzyl)-2-(N-(4-chloro-2-fluorobenzyl)-(2,3,4,5,6-pentafluorophenyl)sulfon-amido)acetamido)-3-methoxybenzoic acid] yielded an IC50 of 316 to 1000 nM. In the case of Cc1cc(C(=O)O)cc(C)c1N(Cc1cc(C2CC2)cc(C(C)(C)C)c1)C(=O)CN(Cc1cnccc1C(F)(F)F)S(=O)(=O)c1c(F)c(F)c(F)c(F)c1F [Compound 1181, 4-(N-(3-(tert-butyl)-5-cyclopropylbenzyl)-2-(N-((4-(trifluoromethyl)pyridin-3-yl)methyl)-(2,3,4,5,6-pentafluoro-phenyl)sulfonamido)acetamido)-3,5-dimethylbenzoic acid], the IC50 is reported as 316 to 1000 nM. For Cc1cc(C(=O)O)cc(C)c1N(Cc1cc(C2CC2)cc(C(C)(C)C)c1)C(=O)CN(Cc1ccc(F)cc1Cl)S(=O)(=O)c1c(F)c(F)c(F)c(F)c1F [Compound 1187, 4-(N-(3-(tert-butyl)-5-cyclopropylbenzyl)-2-(N-(2-chloro-4-fluorobenzyl)-(2,3,4,5,6-pentafluorophenyl)sulfon-amido)acetamido)-3,5-dimethylbenzoic acid], the IC50 was 316 to 1000 nM. With Cc1cc(C(=O)O)cc(C)c1N(Cc1cc(C2CC2)cc(C2CC2)c1)C(=O)CN(Cc1cnccc1C(F)(F)F)S(=O)(=O)c1c(F)c(F)c(F)c(F)c1F [Compound 1202, 4-(N-(3,5-dicyclopropylbenzyl)-2-(N-((4-(trifluoromethyl)pyridin-3-yl)methyl)-(2,3,4,5,6-pentafluoro-phenyl)sulfonamido)acetamido)-3,5-dimethylbenzoic acid] the IC50 was 316 to 1000 nM.

Same assay, conditions: MV-4-11 cells
COc1cc(C(=O)O)ccc1N(Cc1cc(C2CC2)cc(C2CC2)c1)C(=O)CN(Cc1ncc(F)cc1Cl)S(=O)(=O)c1c(F)c(F)c(F)c(F)c1F [Compound 1176, 4-(2-(N-((3-chloro-5-fluoropyridin-2-yl)methyl)-(2,3,4,5,6-pentafluorophenyl)sulfon-amido)-N-(3,5-dicyclopropylbenzyl)acetamido)-3-methoxybenzoic acid] showed an IC50 of 0.01 to 316 nM.
